# Assay results: paper PMC12305296, “Repurposing of FDA‐Approved Drugs to Disrupt Iron Uptake in Mycobacterium abscessus: Targeting Salicylate Synthase as a Novel Approach” (Chemical Biology & Drug Design, 2025)
# How the values were obtained:
# [1] = molecular target: T1, recombinant Mab‐SaS (Mycobacteroides abscessus, UniProt B1MAQ5); assay: Mab‐SaS enzyme inhibition, direct fluorometric assay; type: biochemical, Mycobacterium abscessus; conditions: for inhibition at 100 µM: read-out: inhibition of Mab‐SaS at 100 μM; for remaining activity at 100 µM: read-out: residual activity at 100 μM (%); for Ki: steady‐state kinetics, competitive inhibition equation; for mode of inhibition towards CHO: reciprocal plots of steady‐state kinetics
# T1 sequence (B1MAQ5 entry or part of it): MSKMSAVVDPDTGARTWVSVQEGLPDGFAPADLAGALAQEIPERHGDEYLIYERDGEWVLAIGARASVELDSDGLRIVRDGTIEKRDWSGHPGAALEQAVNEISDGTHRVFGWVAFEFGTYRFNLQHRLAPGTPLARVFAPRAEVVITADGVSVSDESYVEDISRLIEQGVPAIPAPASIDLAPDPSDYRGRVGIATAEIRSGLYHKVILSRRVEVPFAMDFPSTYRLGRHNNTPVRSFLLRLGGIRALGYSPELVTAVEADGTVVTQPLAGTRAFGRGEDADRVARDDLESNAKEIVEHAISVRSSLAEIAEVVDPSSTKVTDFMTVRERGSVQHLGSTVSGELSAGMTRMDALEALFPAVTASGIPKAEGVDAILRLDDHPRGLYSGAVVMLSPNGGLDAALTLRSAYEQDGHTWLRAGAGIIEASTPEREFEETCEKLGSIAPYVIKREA
# Procedure: The recombinant Mab‐SaS was expressed in E. coli and purified as previously reported (Mori et al. [2023]). Enzyme activity was determined by a direct fluorometric assay (Mori et al. [2020]). Briefly, the assays were performed in 400 μL of 50 mM potassium phosphate pH 8.0, containing 5 mM MgCl2, and 1–2 μM Mab‐SaS. The reaction was started by the addition of CHO and monitored using a PerkinElmer LS3 fluorimeter (Ex. λ = 305 nm, Em. λ = 410 nm; PerkinElmer, Waltham, MA, USA).
# The compounds identified by the in silico investigations were purchased from CymitQuimica S.L. and dissolved at a concentration of 20 mM in dimethylsulfoxide (DMSO) or water, according to their solubility. Specifically, gentamycin, cytidine, amifostine, and hydroxystilbamidine were dissolved in water, while esomeprazole, fostamatinib, S‐adenosyl‐L‐homocysteine, norepinephrine, labetalol, levolansoprazole, and nebivolol were dissolved in DMSO.
# The inhibitory activity of the candidates was initially evaluated at a final concentration of 100 μM, using a subsaturating concentration of the substrate (CHO) of 70 μM. […] IC50 was calculated by measuring enzymatic activity in the presence of different compound concentrations, using (Equation 1), where A[I] is the enzyme activity at inhibitor concentration [I] and A[0] is the enzyme activity without inhibitor. (1) AI=A0×1−I/I+IC50
# The inhibition constant values (K i) were determined by assaying Mab‐SaS at different substrate and compound concentrations and using an adapted equation for competitive inhibition (Equation 2) with GraphPad 8.0 software. (2) v=VmaxS/S+Km1+I/Ki
# [2] = molecular target: T1, recombinant Mab‐SaS; assay: PAINS control assays (BSA, Triton X‐100, DTT) on Mab‐SaS inhibition; type: biochemical, Mycobacterium abscessus; conditions: for inhibition in presence of BSA and Triton X‐100 (aggregation check): 0.1 mg/mL BSA or 0.01% (v/v) Triton X‐100; for effect of DTT on inhibition (cysteine reactivity check): 100 mM DTT
# [3] = test system: M. smegmatis mc^2155; assay: REMA antimycobacterial assay in iron‐limiting chelated Sauton's medium; type: cell-based; conditions: Mycolicibacterium smegmatis, iron‐limiting conditions
# Procedure: Antimycobacterial activity of the best compounds was evaluated by REMA assay in iron‐limiting chelated Sauton's medium on M. smegmatis MC^2 155 (Siegrist et al. [2009]; Mehra and Philips [2014]). This microorganism is widely used as a non‐pathogenic model for Mab, since it shares similar biological characteristics and replicates more rapidly than other mycobacteria. By using this non‐pathogenic microorganism, we could efficiently study processes related to Mab, while minimizing the hazards and technical difficulties of working directly with a pathogenic strain.
structure (smiles),measurement,setting,value
NC[C@H](O)c1ccc(O)c(O)c1 [Norepinephrine],inhibition at 100 µM,[1],~24%
same,remaining activity at 100 µM,[1],75.5 ± 1.4%
Cc1c(OCC(F)(F)F)ccnc1C[S@+]([O-])c1nc2ccccc2[nH]1 [Levolansoprazole],inhibition at 100 µM,[1],~37%
same,remaining activity at 100 µM,[1],62.8 ± 1.7%
OC(CNCC(O)C1CCc2cc(F)ccc2O1)C1CCc2cc(F)ccc2O1 (stereo not shown) [Nebivolol],remaining activity at 100 µM,[1],82.3 ± 1.3%
CNC(C)C1CCC(N)C(OC2C(N)CC(N)C(OC3OCC(C)(O)C(NC)C3O)C2O)O1 (stereo not shown) [Gentamycin],inhibition of Mab‐SaS at 100 μM,"[1]; 100 μM compound, 70 μM CHO",did not exhibit any inhibitory effect
same,remaining activity at 100 µM,[1],98.8 ± 5.7%
COc1ccc2nc([S@@+]([O-])Cc3ncc(C)c(OC)c3C)[nH]c2c1 [Esomeprazole],IC50,[1],13.6 ± 1.1 µM
same,inhibition of Mab‐SaS at 100 μM,"[1]; 100 μM compound, 70 μM CHO",completely blocked the enzymatic activity
same,Ki,[1],3.7 ± 0.4 µM
same,remaining activity at 100 µM,[1],3.3 ± 1.7%
same,mode of inhibition towards CHO,[1],competitive
same,inhibition in presence of BSA and Triton X‐100 (aggregation check),[2],inhibited the enzyme
same,effect of DTT on inhibition (cysteine reactivity check),[2],no impact on the inhibition
CC(CCc1ccccc1)NCC(O)c1ccc(O)c(C(N)=O)c1 (stereo not shown) [Labetalol],inhibition at 100 µM,[1],~53%
same,remaining activity at 100 µM,[1],47 ± 2.1%
COc1cc(Nc2ncc(F)c(Nc3ccc4c(n3)N(COP(=O)(O)O)C(=O)C(C)(C)O4)n2)cc(OC)c1OC [Fostamatinib],IC50,[1],21 ± 1.3 µM
same,inhibition of Mab‐SaS at 100 μM,"[1]; 100 μM compound, 70 μM CHO",completely blocked the enzymatic activity
same,residual activity at 100 μM (%),"[1]; 100 μM compound, 70 μM CHO, Mean ± SD of three experiments",11.6 ± 0.7%
same,Ki,[1],11.7 ± 0.7 µM
same,mode of inhibition towards CHO,[1],competitive
same,inhibition in presence of BSA and Triton X‐100 (aggregation check),[2],inhibited the enzyme
same,effect of DTT on inhibition (cysteine reactivity check),[2],no impact on the inhibition
N=C(N)c1ccc(/C=C/c2ccc(C(=N)N)cc2O)cc1 [Hydroxystilbamidine],IC50,[1],11.5 ± 1.1 µM
same,inhibition of Mab‐SaS at 100 μM,"[1]; 100 μM compound, 70 μM CHO",completely blocked the enzymatic activity
same,Ki,[1],5.4 ± 0.5 µM
same,remaining activity at 100 µM,[1],0.5 ± 0.3%
same,mode of inhibition towards CHO,[1],competitive
same,MIC,[3],250 µM
same,inhibition in presence of BSA and Triton X‐100 (aggregation check),[2],inhibited the enzyme
same,effect of DTT on inhibition (cysteine reactivity check),[2],no impact on the inhibition
Nc1ncnc2c1ncn2[C@@H]1O[C@H](CSCC[C@H](N)C(=O)O)[C@@H](O)[C@H]1O [S‐adenosyl‐L‐homocysteine],remaining activity at 100 µM,[1],102 ± 3.8%
NCCCNCCSP(=O)(O)O [Amifostine],remaining activity at 100 µM,[1],78.1 ± 3.2%
Nc1ccn([C@@H]2O[C@H](CO)[C@@H](O)[C@H]2O)c(=O)n1 [Cytidine],remaining activity at 100 µM,[1],88.8 ± 2.5%
